Among the test systems are 786-0 renal; BT-549 breast; KM12 colon; NCI/ADR-RES ovarian; OVCAR-4 ovarian; OVCAR-8 ovarian; SK-MEL-2 melanoma; SR leukemia.
Test in all cases: NCI anticancer screen, dose series, 48 h

Among the data in PubChem BioAssay (NCI) are GI50 and TGI values, retold here.

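Dose response: 5 concentrations. Exposure: 48 h. Format: 96-well plates. Endpoint: linear interpolation; highest concentration if not reached. Abbreviation: GI50, concentration required for 50% inhibition of growth. TGI: concentration producing complete growth inhibition.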

Take `CCOCCc1c(O)nc(SC)[nH]c1=O`: the GI50 in the assay with 786-0 renal, with BT-549 breast, in the assay on KM12 colon, in the assay on NCI/ADR-RES ovarian, in the assay with OVCAR-4 ovarian and in the assay on OVCAR-8 ovarian was above 100 µM in each case. Besides, the GI50 in the assay on SK-MEL-2 melanoma and with SR leukemia was above 100 µM in each case. The TGI in the assay with 786-0 renal, with BT-549 breast, in the assay on KM12 colon, with NCI/ADR-RES ovarian, in the assay on OVCAR-4 ovarian and with OVCAR-8 ovarian was above 100 µM in each case. Also, the TGI in the assay with SK-MEL-2 melanoma and in the assay on SR leukemia was above 100 µM in each case.

Consider `O=C1Nc2ccccc2C1(c1ccc(O)c(F)c1)c1ccc(O)c(F)c1`, for which the GI50 is 18.8 µM in the assay with 786-0 renal; 0.166 µM in the assay on BT-549 breast; 3.07 µM in the assay with KM12 colon; 0.389 µM in the assay on NCI/ADR-RES ovarian; 0.237 µM with OVCAR-4 ovarian; 0.333 µM in the assay with OVCAR-8 ovarian. For the same molecule, the GI50 in the assay on SK-MEL-2 melanoma was 11.4 µM; with SR leukemia, 3.83 µM. Also, the TGI with 786-0 renal was 44.1 µM; with BT-549 breast, 0.593 µM; in the assay with KM12 colon, 22.9 µM; with NCI/ADR-RES ovarian it was above 100 µM; in the assay with OVCAR-4 ovarian, 0.659 µM; in the assay with OVCAR-8 ovarian it was 3.49 µM. The figures for the TGI with SK-MEL-2 melanoma and with SR leukemia were 31.5 µM and above 52.3 µM, respectively.

Consider `COc1ccc(Nc2c3c4c(cccc4[nH]c2=O)C(=O)c2ccccc2-3)cc1`, for which the GI50 in the assay with 786-0 renal was 0.0334 µM; in the assay on BT-549 breast it was 0.0268 µM; with KM12 colon it was below 0.0182 µM; with NCI/ADR-RES ovarian, 0.0227 µM; in the assay with OVCAR-4 ovarian it was 0.971 µM; in the assay with OVCAR-8 ovarian, 0.0367 µM. The GI50 in the assay on SK-MEL-2 melanoma was 0.048 µM. For the same molecule, the TGI with 786-0 renal is 19.6 µM; in the assay with BT-549 breast, 0.0708 µM; with KM12 colon, 0.181 µM; with NCI/ADR-RES ovarian, 0.0526 µM; with OVCAR-4 ovarian it was above 100 µM; with OVCAR-8 ovarian, above 100 µM. Moreover, in the assay on SK-MEL-2 melanoma, the TGI was above 100 µM.

For the molecule `COc1ccc(/C=C2\N=C(c3ccccc3)N(c3cc(C(F)(F)F)ccc3Cl)C2=O)cc1OC`, the GI50 is 13.8 µM in the assay on 786-0 renal; 39 µM in the assay on KM12 colon; 55.6 µM in the assay with NCI/ADR-RES ovarian; 39.2 µM in the assay with OVCAR-4 ovarian; 50.8 µM in the assay with OVCAR-8 ovarian; 31.9 µM with SK-MEL-2 melanoma. The TGI with 786-0 renal is 37.3 µM; in the assay on KM12 colon, above 100 µM; with NCI/ADR-RES ovarian, above 100 µM; in the assay on OVCAR-4 ovarian it was above 100 µM; in the assay with OVCAR-8 ovarian, above 100 µM; in the assay with SK-MEL-2 melanoma it was 82.1 µM. The molecule also gave a TGI with SR leukemia of 0.0635 µM.

Consider `COc1cc(C(=O)NC2CCN(C)CC2)ccc1Nc1ncc2c(n1)N(C1CCCC1)CC(F)(F)C(=O)N2C`, for which the GI50 in the assay on 786-0 renal is 0.0903 µM; with BT-549 breast, 0.0989 µM; with KM12 colon, below 0.01 µM; in the assay on NCI/ADR-RES ovarian, 0.964 µM; with OVCAR-4 ovarian it was 0.264 µM; in the assay with OVCAR-8 ovarian it was below 0.01 µM. In addition, the values for the GI50 with SK-MEL-2 melanoma and with SR leukemia were 2.23 µM and below 0.01 µM, respectively. Further, the TGI is 6.87 µM in the assay with 786-0 renal; 15.5 µM with BT-549 breast; 14.1 µM in the assay with KM12 colon; 15.7 µM in the assay on NCI/ADR-RES ovarian; 12.5 µM in the assay with OVCAR-4 ovarian; 18.3 µM in the assay with OVCAR-8 ovarian. The TGI with SK-MEL-2 melanoma amounted to 6.56 µM; with SR leukemia it was 0.448 µM.

Regarding `CC(=O)Oc1ccc2ccc(=O)oc2c1OC(C)=O`, the TGI in the assay on 786-0 renal, with BT-549 breast, in the assay with KM12 colon, in the assay on NCI/ADR-RES ovarian, in the assay with OVCAR-4 ovarian and with OVCAR-8 ovarian was above 100 µM each time. Besides, the TGI in the assay with SK-MEL-2 melanoma and with SR leukemia was above 100 µM throughout.

Regarding `O=S(=O)(O)c1ccc(Cl)cc1.[Cd]`, the GI50 is 22.5 µM with 786-0 renal; 1.94 µM in the assay with BT-549 breast; 73.4 µM with KM12 colon; above 100 µM in the assay with NCI/ADR-RES ovarian; 51.9 µM in the assay with OVCAR-4 ovarian; above 100 µM in the assay with OVCAR-8 ovarian. Moreover, the GI50 in the assay with SK-MEL-2 melanoma is 19.2 µM; in the assay with SR leukemia, 22.8 µM. Also, the TGI in the assay on 786-0 renal was 50.2 µM; with BT-549 breast it was 3.9 µM; with KM12 colon, above 100 µM; in the assay on NCI/ADR-RES ovarian, above 100 µM; in the assay with OVCAR-4 ovarian it was above 100 µM; with OVCAR-8 ovarian, above 100 µM. The TGI was 40.4 µM in the assay with SK-MEL-2 melanoma and above 100 µM in the assay with SR leukemia.

Regarding `COc1ccc2c(CC(=O)O)cc(=O)oc2c1`, the TGI in the assay on 786-0 renal, with BT-549 breast, with KM12 colon, in the assay with NCI/ADR-RES ovarian, with OVCAR-4 ovarian and with OVCAR-8 ovarian was above 100 µM in each case. This molecule showed a TGI in the assay on SR leukemia above 100 µM.

For `C/C(=N\Nc1ccc2ccccc2n1)c1ccccc1O`, the TGI with 786-0 renal, in the assay with BT-549 breast, with KM12 colon, with NCI/ADR-RES ovarian, in the assay with OVCAR-4 ovarian and with OVCAR-8 ovarian was above 100 µM in each case. In addition, the TGI in the assay with SK-MEL-2 melanoma is above 100 µM; in the assay on SR leukemia, 8.16 µM.

With `COc1ccccc1CNCCCN1C(=O)c2ccc3c4c(ccc(c24)C1=O)C(=O)N(CCCNCCCCNCCCCN)C3=O`, the GI50 is 2.25 µM with 786-0 renal; 9.17 µM in the assay with BT-549 breast; 2.42 µM with KM12 colon; 12.8 µM with NCI/ADR-RES ovarian; 0.346 µM in the assay with OVCAR-4 ovarian; 0.59 µM in the assay on OVCAR-8 ovarian. Also, the GI50 with SK-MEL-2 melanoma is 1.91 µM; with SR leukemia, 1.5 µM. The TGI in the assay with 786-0 renal was 14.4 µM; in the assay on BT-549 breast, 24.5 µM; in the assay with KM12 colon, 6.91 µM; with NCI/ADR-RES ovarian, above 100 µM; with OVCAR-4 ovarian it was 1.4 µM; with OVCAR-8 ovarian it was 6.59 µM. Moreover, the TGI in the assay with SK-MEL-2 melanoma was found to be 4.87 µM; with SR leukemia, 17.7 µM.

As to `CC1(C)CC[C@]2(C(=O)n3ccnc3)CC[C@]3(C)[C@H](C(=O)C=C4[C@@]5(C)C=C(C#N)C(=O)C(C)(C)[C@@H]5CC[C@]43C)[C@@H]2C1`, the GI50 in the assay on 786-0 renal is below 0.01 µM; with BT-549 breast, below 0.0328 µM; in the assay with KM12 colon, below 0.0104 µM; in the assay on NCI/ADR-RES ovarian it was below 0.01 µM; in the assay with OVCAR-4 ovarian, 0.0359 µM; with OVCAR-8 ovarian, below 0.01 µM. Besides, in the assay with SK-MEL-2 melanoma, the GI50 is below 0.0336 µM. Also, the TGI with 786-0 renal was 0.0199 µM; with BT-549 breast, 0.126 µM; in the assay with KM12 colon, below 0.0199 µM; with NCI/ADR-RES ovarian, 0.0895 µM; in the assay on OVCAR-4 ovarian, 0.173 µM.
